Columns and labels:
[1] = relative permittivity at various frequencies (dimensionless); conditions: 298.15 K; 101.3 kPa; Liquid; Frequency=0.01 MHz; Coaxial cylinder capacitor
[2] = 298.15 K; 101.3 kPa; Liquid; Vibrating tube method
[3] = refractive index (Na D-line) (dimensionless); conditions: 298.15 K; 101.3 kPa; Liquid; Standard Abbe refractometry
[4] = relative permittivity at various frequencies (dimensionless); xn = mol fraction of the nth substance listed; conditions: 298.15 K, 101.3 kPa, Liquid, Frequency=0.01 MHz, Coaxial cylinder capacitor
[5] = refractive index (Na D-line) (dimensionless); xn = mol fraction of the nth substance listed; conditions: 298.15 K, 101.3 kPa, Liquid, Standard Abbe refractometry

CC(C)CCO [3-methylbutan-1-ol]
Conditions | mass density [kg/m3] | refractive index | relative permittivity
[1] | – | – | 14.96
[2] | 807.16 | – | –
[3] | – | 1.4048 | –

CC(C)CCO [3-methylbutan-1-ol] + CC(=O)c1ccccc1
x2 = 0
Conditions | refractive index | relative permittivity
[4] | – | 14.96
[5] | 1.4048 | –

CC(C)CCO [3-methylbutan-1-ol] + CC(C)=O
Conditions | refractive index, [5] | relative permittivity, [4]
x2 = 0 | 1.4048 | 14.96
x2 = 0.1 | 1.4016 | 14.72
x2 = 0.2 | 1.3981 | 14.62
x2 = 0.3 | 1.3936 | 14.71
x2 = 0.4 | 1.3893 | 14.96
x2 = 0.5 | 1.3854 | 15.44
x2 = 0.6 | 1.3799 | 16.08
x2 = 0.7 | 1.3751 | 16.95
x2 = 0.8 | 1.3701 | 17.99
x2 = 0.9 | 1.3634 | 19.21

CC(C)CCO [3-methylbutan-1-ol] + CCC(C)=O
Conditions | refractive index, [5] | relative permittivity, [4]
x2 = 0 | 1.4048 | 14.96
x2 = 0.099 | 1.4024 | 14.59
x2 = 0.2 | 1.4001 | 14.38
x2 = 0.3 | 1.3972 | 14.33
x2 = 0.4 | 1.3948 | 14.44
x2 = 0.499 | 1.392 | 14.69
x2 = 0.599 | 1.3891 | 15.12
x2 = 0.7 | 1.3863 | 15.7
x2 = 0.8 | 1.3829 | 16.43
x2 = 0.9 | 1.38 | 17.33

CC(C)CCO [3-methylbutan-1-ol] + C[S+](C)[O-]
Conditions | refractive index, [5] | relative permittivity, [4]
x2 = 0 | 1.4048 | 14.96
x2 = 0.1 | 1.4071 | 15.92
x2 = 0.2 | 1.4118 | 17.56
x2 = 0.3 | 1.4168 | 19.79
x2 = 0.4 | 1.4227 | 22.45
x2 = 0.5 | 1.4305 | 25.51
x2 = 0.6 | 1.4385 | 28.95
x2 = 0.7 | 1.4459 | 32.76
x2 = 0.8 | 1.4549 | 37.01
x2 = 0.9 | 1.4651 | 41.68

CC(C)=O [acetone]
Conditions | mass density [kg/m3] | refractive index | relative permittivity
[1] | – | – | 20.69
[2] | 784.42 | – | –
[3] | – | 1.3564 | –

CC(C)=O [acetone] + CC(C)CCO
x1 = 1
Conditions | refractive index | relative permittivity
[4] | – | 20.69
[5] | 1.3564 | –

CC(C)=O [acetone] + CCCCCO
x1 = 1
Conditions | refractive index | relative permittivity
[4] | – | 20.69
[5] | 1.3564 | –

CC(=O)c1ccccc1 [acetophenone]
Conditions | mass density [kg/m3] | refractive index | relative permittivity
[1] | – | – | 17.51
[2] | 1022.77 | – | –
[3] | – | 1.5318 | –

CC(=O)c1ccccc1 [acetophenone] + CC(C)CCO
Conditions | refractive index, [5] | relative permittivity, [4]
x1 = 0.101 | 1.418 | 14.65
x1 = 0.199 | 1.4303 | 14.47
x1 = 0.301 | 1.4451 | 14.39
x1 = 0.4 | 1.4573 | 14.45
x1 = 0.5 | 1.4709 | 14.66
x1 = 0.6 | 1.4817 | 14.97
x1 = 0.699 | 1.4935 | 15.44
x1 = 0.8 | 1.5063 | 16.03
x1 = 0.9 | 1.5187 | 16.71
x1 = 1 | 1.5318 | 17.51

CC(=O)c1ccccc1 [acetophenone] + CCCCCO
Conditions | refractive index, [5] | relative permittivity, [4]
x1 = 0.1 | 1.4212 | 14.86
x1 = 0.2 | 1.4346 | 14.71
x1 = 0.3 | 1.4468 | 14.66
x1 = 0.4 | 1.4598 | 14.75
x1 = 0.501 | 1.4726 | 14.94
x1 = 0.6 | 1.4859 | 15.25
x1 = 0.7 | 1.4968 | 15.65
x1 = 0.8 | 1.5092 | 16.19
x1 = 0.9 | 1.5213 | 16.83
x1 = 1 | 1.5318 | 17.51

CCC(C)=O [butanone]
Conditions | mass density [kg/m3] | refractive index | relative permittivity
[1] | – | – | 18.38
[2] | 799.75 | – | –
[3] | – | 1.376 | –

CCC(C)=O [butanone] + CC(C)CCO
x1 = 1
Conditions | refractive index | relative permittivity
[4] | – | 18.38
[5] | 1.376 | –

CCC(C)=O [butanone] + CCCCCO
Conditions | refractive index, [5] | relative permittivity, [4]
x1 = 0.1 | 1.4053 | 14.81
x1 = 0.2 | 1.4023 | 14.68
x1 = 0.3 | 1.3988 | 14.63
x1 = 0.4 | 1.3959 | 14.73
x1 = 0.5 | 1.393 | 14.96
x1 = 0.599 | 1.3898 | 15.35
x1 = 0.7 | 1.3859 | 15.9
x1 = 0.8 | 1.3826 | 16.56
x1 = 0.9 | 1.3796 | 17.44
x1 = 1 | 1.376 | 18.38

C1CCCCC1 [cyclohexane]
Conditions | mass density [kg/m3] | refractive index | relative permittivity
[1] | – | – | 2.02
[2] | 773.58 | – | –
[3] | – | 1.4234 | –

C[S+](C)[O-] [dimethyl sulfoxide]
Conditions | mass density [kg/m3] | refractive index | relative permittivity
[1] | – | – | 46.71
[2] | 1096.07 | – | –
[3] | – | 1.4767 | –

C[S+](C)[O-] [dimethyl sulfoxide] + CC(C)CCO
x1 = 1
Conditions | refractive index | relative permittivity
[4] | – | 46.71
[5] | 1.4768 | –

C[S+](C)[O-] [dimethyl sulfoxide] + CCCCCO
x1 = 1
Conditions | refractive index | relative permittivity
[4] | – | 46.71
[5] | 1.4767 | –

CCCCCO [pentan-1-ol]
Conditions | mass density [kg/m3] | refractive index | relative permittivity
[1] | – | – | 15.12
[2] | 811.1 | – | –
[3] | – | 1.4082 | –

CCCCCO [pentan-1-ol] + CC(=O)c1ccccc1
x2 = 0
Conditions | refractive index | relative permittivity
[4] | – | 15.12
[5] | 1.4082 | –

CCCCCO [pentan-1-ol] + CC(C)=O
Conditions | refractive index, [5] | relative permittivity, [4]
x2 = 0 | 1.4082 | 15.12
x2 = 0.1 | 1.4049 | 14.94
x2 = 0.2 | 1.4015 | 14.91
x2 = 0.301 | 1.397 | 15.01
x2 = 0.399 | 1.3926 | 15.28
x2 = 0.5 | 1.3882 | 15.73
x2 = 0.601 | 1.3828 | 16.35
x2 = 0.701 | 1.3771 | 17.21
x2 = 0.8 | 1.3706 | 18.21
x2 = 0.9 | 1.3639 | 19.36

CCCCCO [pentan-1-ol] + CCC(C)=O
x2 = 0
Conditions | refractive index | relative permittivity
[4] | – | 15.12
[5] | 1.4082 | –

CCCCCO [pentan-1-ol] + C[S+](C)[O-]
Conditions | refractive index, [5] | relative permittivity, [4]
x2 = 0 | 1.4082 | 15.12
x2 = 0.099 | 1.4109 | 16.27
x2 = 0.201 | 1.4164 | 18.04
x2 = 0.3 | 1.4217 | 20.24
x2 = 0.4 | 1.427 | 22.93
x2 = 0.5 | 1.4339 | 25.94
x2 = 0.6 | 1.44 | 29.38
x2 = 0.7 | 1.4488 | 33.14
x2 = 0.8 | 1.4573 | 37.33
x2 = 0.9 | 1.4675 | 41.95

From the NIST ThermoML archive (doi:10.1016/j.jct.2017.06.020)
